Key:
Type in all cases: in vivo
[1] = tested on: Echinochloa crus-galli (ECHCG); assay: Herbicidal pre-emergence action, section C (Table C3); details: visual grading after ca. 3 weeks vs untreated controls; for pest or weed control at 80 g/ha: Echinochloa crus-galli, pre-emergence, 504 h, read-out: pre-emergence activity against ECHCG in %
Method in brief: (§1)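 Pre-emergence, sandy loam. WP/EC formulations applied to covering soil surface, aqueous, + 0.5% additive, 600 l water/ha. Greenhouse, optimum growth. Visual % damage vs untreated, ca. 3 wk.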

[2] = tested on: Echinochloa crus-galli (ECHCG); assay: Herbicidal post-emergence action, section E (Table E5); details: visual assessment ca. 3 weeks after spraying
Excerpt: (§2) Seeds of mono- and dicotyledonous weed plants and crop plants were sown, in plastic or organic planting pots, in sandy loam, covered with soil and grown in a greenhouse under controlled growth conditions. 2 to 3 weeks after sowing, the test plants were sprayed in the single-leaf stage. The compounds according to the invention, formulated in form of wettable powders (WP) or as emulsifiable concentrates (EC), were sprayed onto the green plant parts as aqueous suspension or emulsion, with the addition of 0.5% of an additive, at an application rate of 600 l of water/ha (converted). The test plants were placed in the greenhouse for ca. 3 weeks under optimum growth conditions, and then the effect of the preparations was assessed visually in comparison with untreated controls (herbicidal effect in percent (%): 100% effect=plants have died off, 0% effect=as control plants).

Setaria viridis (SETVI) [3] = assay: Herbicidal pre-emergence action, section A (Table A8); details: application rate 320 g/ha; for pest or weed control at 320 g/ha: Setaria viridis, 504 h, read-out: pre-emergence activity against SETVI in %
Method in brief: (§3)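 Sandy loam pots, seeds covered with soil, treated on the soil surface with aqueous WP or EC preparations containing 0.5% additive (600 l/ha). Visual damage rating after ca. 3 weeks in greenhouse; scale 0% (as control) to 100% (plants died off).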

Lolium rigidum (LOLRI) = assay: Herbicidal pre-emergence action, section C (Table C5); details: visual grading after ca. 3 weeks
Excerpt: Seeds of mono- and dicotyledonous weed plants and crop plants were sown, in plastic or organic planting pots, in sandy loam and covered with soil. The compounds according to the invention, formulated in the form of wettable powders (WP) or as emulsifiable concentrates (EC), were applied to the surface of the covering soil as aqueous suspension or emulsion, with the addition of 0.5% of an additive, at an application rate of 600 l of water/ha (converted). Following treatment, the pots were placed in a greenhouse and kept under optimum growth conditions for the test plants. The visual grading of the damage to the test plants was carried out after ca. 3 weeks in comparison to untreated controls (herbicidal effect in percent (%): 100% effect=plants have died off, 0% effect=as control plants).

[4] = tested on: Digitaria sanguinalis (DIGSA); assay: Herbicidal pre-emergence action, section A (Table A12); details: application rate 320 g/ha; for pest or weed control at 320 g/ha: Digitaria sanguinalis, 504 h, read-out: pre-emergence activity against DIGSA in %
Method in brief: as §3

[5] = tested on: Amaranthus retroflexus (AMARE); assay: Herbicidal pre-emergence action, section A (Table A11); details: for pre-emergence activity against AMARE in % / pest or weed control at 320 g/ha: application rate 320 g/ha
Method in brief: as §3

Zea mays (ZEAMX) = assay: Post-emergence effects on crop plants, section F (Table F1); details: for post-emergence activity against ZEAMX in %: crop plant damage; for percent crop plant damage (phytotoxicity) on Zea mays, post-emergence at 80 g/ha: 504 h, read-out: post-emergence activity against ZEAMX in %
Method in brief: (§4)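 Sandy loam, greenhouse, controlled conditions. Spray at single-leaf stage (2–3 wk post-sowing); WP/EC aqueous suspension/emulsion + 0.5% additive, 600 l water/ha; rate ≤320 g/ha. Visual scoring ca. 3 wk post-spray vs untreated, % effect.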

[6] = tested on: Alopecurus myosuroides (ALOMY); assay: Herbicidal pre-emergence action, section A (Table A2); details: visual grading after ca. 3 weeks vs untreated controls
Method in brief: as §3

Setaria viridis (SETVI) [7] = assay: Herbicidal pre-emergence action, section C (Table C8); details: visual grading after ca. 3 weeks; for pest or weed control at 80 g/ha: Setaria viridis, pre-emergence, 504 h, read-out: pre-emergence activity against SETVI in %
Method in brief: as §1

[8] = tested on: Matricaria inodora (MATIN); assay: Herbicidal pre-emergence action, section A (Table A6); details: visual grading after ca. 3 weeks vs untreated controls
Method in brief: as §3

[9] = tested on: Alopecurus myosuroides (ALOMY); assay: Herbicidal post-emergence action, section E (Table E2); details: application rate 320 g/ha, assessed visually after ca. 3 weeks; for pest or weed control at 320 g/ha: Alopecurus myosuroides, post-emergence, 504 h, read-out: post-emergence activity against ALOMY in %
Excerpt: as §2

[10] = tested on: Amaranthus retroflexus (AMARE); assay: Herbicidal post-emergence action, section E (Table E3); details: assessed visually after ca. 3 weeks; for post-emergence activity against AMARE in % / pest or weed control at 320 g/ha: application rate 320 g/ha
Excerpt: as §2

Glycine max (GLXMA) = assay: Post-emergence effects on crop plants, section F (Table F4); details: crop plant damage, application rate 80 g/ha
Method in brief: as §4

[11] = Lolium rigidum, pre-emergence, 504 h, application rate 80 g/ha, read-out: pre-emergence activity against LOLRI in %
[12] = Alopecurus myosuroides, pre-emergence, 504 h, application rate 1280 g/ha, read-out: pre-emergence activity against ALOMY in %
[13] = Echinochloa crus-galli, 504 h, application rate 320 g/ha, read-out: post-emergence activity against ECHCG in %
[14] = Amaranthus retroflexus, 504 h, read-out: pre-emergence activity against AMARE in %
[15] = Tripleurospermum inodorum, pre-emergence, 504 h, application rate 320 g/ha, read-out: pre-emergence activity against MATIN in %
[16] = Amaranthus retroflexus, post-emergence, 504 h, read-out: post-emergence activity against AMARE in %

SMILES	pre-emergence activity against ECHCG in % ([1]; application rate 80 g/ha) [%]	post-emergence activity against ECHCG in % ([2]; application rate 320 g/ha) [%]	pre-emergence activity against SETVI in % (Setaria viridis (SETVI) [3]) [%]	pre-emergence activity against LOLRI in % (Lolium rigidum (LOLRI); application rate 320 g/ha) [%]	pre-emergence activity against DIGSA in % [4] [%]	pre-emergence activity against AMARE in % [5] [%]	post-emergence activity against ZEAMX in % (Zea mays (ZEAMX); application rate 80 g/ha) [%]	pre-emergence activity against ALOMY in % ([6]; application rate 320 g/ha) [%]	pre-emergence activity against SETVI in % (Setaria viridis (SETVI) [7]; application rate 80 g/ha) [%]	pre-emergence activity against MATIN in % ([8]; application rate 320 g/ha) [%]	post-emergence activity against ALOMY in % [9] [%]	post-emergence activity against AMARE in % [10] [%]	pest or weed control at 80 g/ha ([1]; application rate 80 g/ha) [%]	pest or weed control at 320 g/ha (Setaria viridis (SETVI) [3]) [%]	pest or weed control at 80 g/ha (Lolium rigidum (LOLRI); [11]) [%]	percent crop plant damage (phytotoxicity) on Zea mays, post-emergence at 80 g/ha (Zea mays (ZEAMX); application rate 80 g/ha) [%]	pest or weed control at 80 g/ha (Setaria viridis (SETVI) [7]; application rate 80 g/ha) [%]	pest or weed control at 320 g/ha [9] [%]	pest or weed control at 320 g/ha [2, 13] [%]	pest or weed control at 320 g/ha [10, 16] [%]	further results
Cc1cc2c(nc1-c1ccccc1F)N(C(=O)C13CCCC1C(Cl)=NO3)CS2 (stereo not drawn) [Example I-104]	100	80	100	100	100	90	20	90	100	100	80										
COCC1(C(=O)N2CSc3cc(C)c(-c4ccccc4F)nc32)CC(Cl)=NO1 (stereo not drawn) [Example I-128]	100	90	100		100	90		100	100	100	90	90									pre-emergence activity against LOLRI in % (Lolium rigidum (LOLRI); application rate 80 g/ha): 100%; post-emergence activity against ZEAMX in % (Zea mays (ZEAMX); application rate 320 g/ha): 0%
Cc1cc2c(nc1-c1ccccc1F)NCS2 [Example I-007, 5-(2-fluorophenyl)-6-methyl-2,3-dihydro[1,3]thiazolo[4,5-b]pyridine]													100	100	100	0	100	90			pest or weed control at 80 g/ha ([2]; Echinochloa crus-galli, 504 h, application rate 80 g/ha, read-out: post-emergence activity against ECHCG in %): 90%; pest or weed control at 1280 g/ha ([5]; Amaranthus retroflexus, 504 h, application rate 1280 g/ha, read-out: pre-emergence activity against AMARE in %): 90%; pest or weed control at 1280 g/ha [6, 12]: 100%; pest or weed control at 1280 g/ha ([8]; Tripleurospermum inodorum, pre-emergence, 504 h, application rate 1280 g/ha, read-out: pre-emergence activity against MATIN in %): 90%; pest or weed control at 80 g/ha ([10]; Amaranthus retroflexus, post-emergence, 504 h, application rate 80 g/ha, read-out: post-emergence activity against AMARE in %): 80%
Cc1cc2c(nc1-c1ccccc1F)N(S(=O)(=O)Cc1ccc(F)cc1)CS2 [Example I-122]		90	100	100	100	90				90	90										post-emergence activity against GLXMA in % (Glycine max (GLXMA)): 10%; pre-emergence activity against ECHCG in % ([1]; application rate 320 g/ha): 100%; post-emergence activity against ZEAMX in % (Zea mays (ZEAMX); application rate 320 g/ha): 0%; pre-emergence activity against ALOMY in % ([6]; application rate 1280 g/ha): 100%; pre-emergence activity against SETVI in % (Setaria viridis (SETVI) [7]; application rate 320 g/ha): 100%
Cc1cc2c(nc1-c1ccccc1F)N(C(=O)C1(C)CC(Cl)=NO1)CS2 (stereo not drawn) [Example I-083]	100		100	80	100	100	10	100	100		90	80									post-emergence activity against ECHCG in % ([2]; application rate 80 g/ha): 80%; pre-emergence activity against MATIN in % ([8]; application rate 1280 g/ha): 90%
Cc1cc2c(nc1-c1cccc(F)c1F)NCS2 [Example I-029, 5-(2,3-difluorophenyl)-6-methyl-2,3-dihydro[1,3]thiazolo[4,5-b]pyridine]													100	100		0	100	80	80	80	pest or weed control at 320 g/ha (Lolium rigidum (LOLRI); Lolium rigidum, pre-emergence, 504 h, application rate 320 g/ha, read-out: pre-emergence activity against LOLRI in %): 100%; pest or weed control at 320 g/ha [4]: 100%; pest or weed control at 320 g/ha [5, 14]: 90%; pest or weed control at 1280 g/ha [6, 12]: 90%; pest or weed control at 320 g/ha [8, 15]: 90%
CCOCCS(=O)(=O)N1C[S+]([O-])c2cc(C)c(-c3ccccc3F)nc21 (stereo not drawn) [Example I-127]														100	80	20	100	90	90	90	pest or weed control at 320 g/ha [4]: 100%; pest or weed control at 320 g/ha [5, 14]: 90%; pest or weed control at 320 g/ha ([6]; Alopecurus myosuroides, pre-emergence, 504 h, application rate 320 g/ha, read-out: pre-emergence activity against ALOMY in %): 100%; pest or weed control at 320 g/ha [8, 15]: 100%
Cc1ccccc1-c1nc2c(cc1C)SCN2C(=O)C1(C)CC(Cl)=NO1 (stereo not drawn) [Example I-137]	100	90	100	100	100	100	0	90	100	90	80	80									
Cc1cc2c(nc1-c1ccccc1Cl)NCS2 [Example I-049, 5-(2-chlorophenyl)-6-methyl-2,3-dihydro[1,3]thiazolo[4,5-b]pyridine]													100		100		100	80	80	90	
